# Reference: US20130212744A1, “METHOD OF REDUCING INSECT-VECTORED VIRAL INFECTIONS” (priority 2010, published 2013)
# Like-named read-outs stand apart in the source and are kept apart here.
# Key:
# Assay type in all cases: in vivo
# [1] = tested on: whitefly Bemisia tabaci adults; test: Foliar use field trial on tomato, efficacy on whitefly adults; conditions: Bemisia tabaci, foliar
# Description: (§1) Two studies were carried out in Elhasanya, Egypt in 2009 on tomato plants of the variety Fayrouz with the main goal to measure efficacy on the whitefly Bemisia tabaci. The plot size was 4.8 m^2 and 6 replicates were used in the trial. Products were applied 3 times on young tomato plants at BBCH stages 14, 17 and 51 at spray intervals between 12 and 19 days. The spray volume was at the first application 350 l/ha and later 500 l/ha. The evaluation of this study was done counting the adult whiteflies (Bemisia tabaci) as well as the nymphs and the eggs in each plot. In addition to the direct whitefly effect, visual symptoms of the virus, mainly TYLCV (tomato yellow leaf curl virus) were evaluated also.
# (§2) ASM=Acibenzolar-S-methyl. WG 50=Actigard® 50WG, a water-dispersible granule with the active ingredient ASM CYNT=Cyantraniliprole. WG 40=Cyazypyr®, a water dispersable granule with the active ingredient CYNT. Results on whitefly adults. Trial 1
# [2] = tested on: whitefly Bemisia tabaci nymphs; test: Foliar use field trial on tomato, efficacy on whitefly nymphs; conditions: Bemisia tabaci, foliar
# Description: as §1, §2
# [3] = tested on: TYLCV (tomato yellow leaf curl virus); test: Foliar use field trial on tomato, infected leaf area by TYLC virus
# Description: as §1, §2
# Evaluation of percentage of infected leaf area by TYLC virus (average of 45 plants evaluated per treatment) Trial 1
# [4] = tested on: whitefly Bemisia tabaci adults; test: Soil use (drench) field trial on tomato, efficacy on whitefly adults; conditions: for Emax at 100 g/ha: 100 g ai/ha; for Emax at 150 g/ha: 150 g ai/ha
# Description: as §1, with “Two soil applied” for “Two”, “plants” for “plants of the variety Fayrouz”, “once” for “3 times”, “stage 14 as a drench.” for “stages 14, 17 and 51 at spray intervals between 12 and 19 days.”, “350” for “350 l/ha and later 500”
smiles,measurement,setting,value
"CNC(=O)c1cc(C#N)cc(C)c1NC(=O)c1cc(Br)nn1-c1ncccc1Cl [CYNT, 3-bromo-1-(3-chloro-2-pyridyl)-4′-cyano-2′-methyl-6′-(methylcarbamoyl)pyrazole-5-carboxanilide]",Emax,"[1]; 75 g ai/hl, 5DAA1, Trial 1, read-out: % Efficacy on Adults",82%
same,Emax,"[1]; 75 g ai/hl, 5DAA1, Trial 2, read-out: % Efficacy on Adults",82%
same,Emax,"[1]; 75 g ai/hl, 5DAA2, Trial 1, read-out: % Efficacy on Adults",69%
same,Emax,"[1]; 75 g ai/hl, 5DAA2, Trial 2, read-out: % Efficacy on Adults",69%
same,Emax,"[1]; 75 g ai/hl, 5DAA3, Trial 1, read-out: % Efficacy on Adults",83%
same,Emax,"[1]; 75 g ai/hl, 5DAA3, Trial 2, read-out: % Efficacy on Adults",83%
same,Emax,"[1]; 75 g ai/hl, 10DAA1, Trial 1, read-out: % Efficacy on Adults",49%
same,Emax,"[1]; 75 g ai/hl, 10DAA1, Trial 2, read-out: % Efficacy on Adults",49%
same,Emax,"[1]; 75 g ai/hl, 10DAA2, Trial 1, read-out: % Efficacy on Adults",67%
same,Emax,"[1]; 75 g ai/hl, 10DAA2, Trial 2, read-out: % Efficacy on Adults",67%
same,Emax,"[1]; 75 g ai/hl, 10DAA3, Trial 1, read-out: % Efficacy on Adults",79%
same,Emax,"[1]; 75 g ai/hl, 10DAA3, Trial 2, read-out: % Efficacy on Adults",79%
same,Emax,"[1]; 75 g ai/hl, 15DAA3, Trial 1, read-out: % Efficacy on Adults",71%
same,Emax,"[1]; 75 g ai/hl, 15DAA3, Trial 2, read-out: % Efficacy on Adults",71%
same,Emax,"[1]; 75 g ai/hl, 20DAA3, Trial 1, read-out: % Efficacy on Adults",62%
same,Emax,"[1]; 75 g ai/hl, 20DAA3, Trial 2, read-out: % Efficacy on Adults",62%
same,Emax,"[1]; 75 g ai/hl, Avg, Trial 1, read-out: % Efficacy on Adults Avg % C",70%
same,Emax,"[1]; 100 g ai/hl, 5DAA1, Trial 1, read-out: % Efficacy on Adults",89%
same,Emax,"[1]; 100 g ai/hl, 5DAA1, Trial 2, read-out: % Efficacy on Adults",89%
same,Emax,"[1]; 100 g ai/hl, 5DAA2, Trial 1, read-out: % Efficacy on Adults",89%
same,Emax,"[1]; 100 g ai/hl, 5DAA2, Trial 2, read-out: % Efficacy on Adults",89%
same,Emax,"[1]; 100 g ai/hl, 5DAA3, Trial 1, read-out: % Efficacy on Adults",90%
same,Emax,"[1]; 100 g ai/hl, 5DAA3, Trial 2, read-out: % Efficacy on Adults",90%
same,Emax,"[1]; 100 g ai/hl, 10DAA1, Trial 1, read-out: % Efficacy on Adults",74%
same,Emax,"[1]; 100 g ai/hl, 10DAA1, Trial 2, read-out: % Efficacy on Adults",74%
same,Emax,"[1]; 100 g ai/hl, 10DAA2, Trial 1, read-out: % Efficacy on Adults",86%
same,Emax,"[1]; 100 g ai/hl, 10DAA2, Trial 2, read-out: % Efficacy on Adults",86%
same,Emax,"[1]; 100 g ai/hl, 10DAA3, Trial 1, read-out: % Efficacy on Adults",86%
same,Emax,"[1]; 100 g ai/hl, 10DAA3, Trial 2, read-out: % Efficacy on Adults",86%
same,Emax,"[1]; 100 g ai/hl, 15DAA3, Trial 1, read-out: % Efficacy on Adults",80%
same,Emax,"[1]; 100 g ai/hl, 15DAA3, Trial 2, read-out: % Efficacy on Adults",80%
same,Emax,"[1]; 100 g ai/hl, 20DAA3, Trial 1, read-out: % Efficacy on Adults",68%
same,Emax,"[1]; 100 g ai/hl, 20DAA3, Trial 2, read-out: % Efficacy on Adults",68%
same,Emax,"[1]; 100 g ai/hl, Avg, Trial 1, read-out: % Efficacy on Adults Avg % C",83%
same,Emax,"[2]; 75 g ai/hl, 5DAA2, Trial 1, read-out: % Efficacy on Nymphs",27%
same,Emax,"[2]; 75 g ai/hl, 5DAA2, Trial 2, read-out: % Efficacy on Nymphs",27%
same,Emax,"[2]; 75 g ai/hl, 5DAA3, Trial 1, read-out: % Efficacy on Nymphs",72%
same,Emax,"[2]; 75 g ai/hl, 5DAA3, Trial 2, read-out: % Efficacy on Nymphs",72%
same,Emax,"[2]; 75 g ai/hl, 10DAA2, Trial 1, read-out: % Efficacy on Nymphs",48%
same,Emax,"[2]; 75 g ai/hl, 10DAA2, Trial 2, read-out: % Efficacy on Nymphs",48%
same,Emax,"[2]; 75 g ai/hl, 10DAA3, Trial 1, read-out: % Efficacy on Nymphs",65%
same,Emax,"[2]; 75 g ai/hl, 10DAA3, Trial 2, read-out: % Efficacy on Nymphs",65%
same,Emax,"[2]; 75 g ai/hl, 15DAA3, Trial 1, read-out: % Efficacy on Nymphs",60%
same,Emax,"[2]; 75 g ai/hl, 15DAA3, Trial 2, read-out: % Efficacy on Nymphs",60%
same,Emax,"[2]; 75 g ai/hl, 20DAA3, Trial 1, read-out: % Efficacy on Nymphs",48%
same,Emax,"[2]; 75 g ai/hl, 20DAA3, Trial 2, read-out: % Efficacy on Nymphs",48%
same,Emax,"[2]; 75 g ai/hl, Avg, Trial 1, read-out: % Efficacy on Nymphs Avg % C",53%
same,Emax,"[2]; 100 g ai/hl, 5DAA2, Trial 1, read-out: % Efficacy on Nymphs",73%
same,Emax,"[2]; 100 g ai/hl, 5DAA2, Trial 2, read-out: % Efficacy on Nymphs",73%
same,Emax,"[2]; 100 g ai/hl, 5DAA3, Trial 1, read-out: % Efficacy on Nymphs",84%
same,Emax,"[2]; 100 g ai/hl, 5DAA3, Trial 2, read-out: % Efficacy on Nymphs",84%
same,Emax,"[2]; 100 g ai/hl, 10DAA2, Trial 1, read-out: % Efficacy on Nymphs",73%
same,Emax,"[2]; 100 g ai/hl, 10DAA2, Trial 2, read-out: % Efficacy on Nymphs",73%
same,Emax,"[2]; 100 g ai/hl, 10DAA3, Trial 1, read-out: % Efficacy on Nymphs",78%
same,Emax,"[2]; 100 g ai/hl, 10DAA3, Trial 2, read-out: % Efficacy on Nymphs",78%
same,Emax,"[2]; 100 g ai/hl, 15DAA3, Trial 1, read-out: % Efficacy on Nymphs",68%
same,Emax,"[2]; 100 g ai/hl, 15DAA3, Trial 2, read-out: % Efficacy on Nymphs",68%
same,Emax,"[2]; 100 g ai/hl, 20DAA3, Trial 1, read-out: % Efficacy on Nymphs",56%
same,Emax,"[2]; 100 g ai/hl, 20DAA3, Trial 2, read-out: % Efficacy on Nymphs",56%
same,Emax,"[2]; 100 g ai/hl, Avg, Trial 1, read-out: % Efficacy on Nymphs Avg % C",72%
same,% Infected Surface area with virus / plant,"[3]; 75 g ai/hl, 5DAA2, Trial 1",0.0%
same,% Infected Surface area with virus / plant,"[3]; 75 g ai/hl, 5DAA2, Trial 2",0.0%
same,% Infected Surface area with virus / plant,"[3]; 75 g ai/hl, 5DAA3, Trial 1",3.0%
same,% Infected Surface area with virus / plant,"[3]; 75 g ai/hl, 5DAA3, Trial 2",3.0%
same,% Infected Surface area with virus / plant,"[3]; 75 g ai/hl, 10DAA3, Trial 1",5.1%
same,% Infected Surface area with virus / plant,"[3]; 75 g ai/hl, 10DAA3, Trial 2",5.1%
same,% Infected Surface area with virus / plant,"[3]; 75 g ai/hl, 15DAA3, Trial 1",7.1%
same,% Infected Surface area with virus / plant,"[3]; 75 g ai/hl, 15DAA3, Trial 2",7.1%
same,% Infected Surface area with virus / plant,"[3]; 75 g ai/hl, 20DAA3, Trial 1",9.8%
same,% Infected Surface area with virus / plant,"[3]; 75 g ai/hl, 20DAA3, Trial 2",9.8%
same,% Infected Surface area with virus / plant,"[3]; 75 g ai/hl, 24DAA3, Trial 1",10.3%
same,% Infected Surface area with virus / plant,"[3]; 75 g ai/hl, 24DAA3, Trial 2",10.3%
same,% Infected Surface area with virus / plant,"[3]; 100 g ai/hl, 5DAA2, Trial 1",0.8%
same,% Infected Surface area with virus / plant,"[3]; 100 g ai/hl, 5DAA2, Trial 2",0.8%
same,% Infected Surface area with virus / plant,"[3]; 100 g ai/hl, 5DAA3, Trial 1",1.9%
same,% Infected Surface area with virus / plant,"[3]; 100 g ai/hl, 5DAA3, Trial 2",1.9%
same,% Infected Surface area with virus / plant,"[3]; 100 g ai/hl, 10DAA3, Trial 1",3.1%
same,% Infected Surface area with virus / plant,"[3]; 100 g ai/hl, 10DAA3, Trial 2",3.1%
same,% Infected Surface area with virus / plant,"[3]; 100 g ai/hl, 15DAA3, Trial 1",3.9%
same,% Infected Surface area with virus / plant,"[3]; 100 g ai/hl, 15DAA3, Trial 2",3.9%
same,% Infected Surface area with virus / plant,"[3]; 100 g ai/hl, 20DAA3, Trial 1",4.5%
same,% Infected Surface area with virus / plant,"[3]; 100 g ai/hl, 20DAA3, Trial 2",4.5%
same,% Infected Surface area with virus / plant,"[3]; 100 g ai/hl, 24DAA3, Trial 1",5.3%
same,% Infected Surface area with virus / plant,"[3]; 100 g ai/hl, 24DAA3, Trial 2",5.3%
same,Emax at 100 g/ha,"[4]; 120 h, 5DAA, Trial 1",79%
same,Emax at 100 g/ha,"[4]; 120 h, 5DAA, Trial 2",70%
same,Emax at 150 g/ha,"[4]; 120 h, 5DAA, Trial 1",83%
same,Emax at 150 g/ha,"[4]; 120 h, 5DAA, Trial 2",76%
same,Emax at 100 g/ha,"[4]; 240 h, 10DAA, Trial 1",75%
same,Emax at 100 g/ha,"[4]; 240 h, 10DAA, Trial 2",71%
same,Emax at 150 g/ha,"[4]; 240 h, 10DAA, Trial 1",75%
same,Emax at 150 g/ha,"[4]; 240 h, 10DAA, Trial 2",80%
same,Emax at 100 g/ha,"[4]; 360 h, 15DAA, Trial 1",78%
same,Emax at 100 g/ha,"[4]; 360 h, 15DAA, Trial 2",76%
same,Emax at 150 g/ha,"[4]; 360 h, 15DAA, Trial 1",79%
same,Emax at 150 g/ha,"[4]; 360 h, 15DAA, Trial 2",83%
same,Emax at 100 g/ha,"[4]; 480 h, 20DAA, Trial 1",72%
same,Emax at 100 g/ha,"[4]; 480 h, 20DAA, Trial 2",74%
same,Emax at 150 g/ha,"[4]; 480 h, 20DAA, Trial 1",74%
same,Emax at 150 g/ha,"[4]; 480 h, 20DAA, Trial 2",82%
same,Emax at 100 g/ha,"[4]; 600 h, 25DAA, Trial 1",66%
same,Emax at 100 g/ha,"[4]; 600 h, 25DAA, Trial 2",72%
same,Emax at 150 g/ha,"[4]; 600 h, 25DAA, Trial 1",69%
same,Emax at 150 g/ha,"[4]; 600 h, 25DAA, Trial 2",80%
same,Emax at 100 g/ha,"[4]; 720 h, 30DAA, Trial 1",61%
same,Emax at 100 g/ha,"[4]; 720 h, 30DAA, Trial 2",65%
same,Emax at 150 g/ha,"[4]; 720 h, 30DAA, Trial 1",67%
same,Emax at 150 g/ha,"[4]; 720 h, 30DAA, Trial 2",71%
same,Emax at 100 g/ha,"[4]; 840 h, 35DAA, Trial 1",53%
same,Emax at 100 g/ha,"[4]; 840 h, 35DAA, Trial 2",57%
same,Emax at 150 g/ha,"[4]; 840 h, 35DAA, Trial 1",59%
same,Emax at 150 g/ha,"[4]; 840 h, 35DAA, Trial 2",62%
same,Emax at 100 g/ha,"[4]; 960 h, 40DAA, Trial 1",39%
same,Emax at 100 g/ha,"[4]; 960 h, 40DAA, Trial 2",43%
same,Emax at 150 g/ha,"[4]; 960 h, 40DAA, Trial 1",45%
same,Emax at 150 g/ha,"[4]; 960 h, 40DAA, Trial 2",45%
